Patent US11739054B2 (priority 2017, dated 2023)

Tests used:
Swiss Webster mice [1] = conditions: mouse, in vivo, sc
Swiss Webster mice [2] = test: METH-induced locomotor activity assay in vaccinated mice; type: in vivo; conditions: Example 4; vaccinated mice challenged with METH
Procedure: On day 42, vaccinated mice were assessed in a locomotion assay by acclimating them for 1 h in a plastic cage (10.5 in.×19 in.×8 in.) with clear ventilated acrylic top. Mice were then quickly removed and injected with saline or 0.5, 1, 2, or 4 mg/kg METH before being returned to their cages; cages were wiped down with dry paper towels to remove excess debris while mice were being injected. The mice were then returned to the cage to be recorded and tracked by overhead camera using ANY-Maze video tracking software (Stoelting Co., Wood Dale, Ill.). Sessions were run during the middle of the dark cycle in a 4.6×4.6 m^2 room with a single 30 W upward-directed light source, and then repeated on mice after a two-day washout period until all mice received all MA doses. Distance traveled (m) and time spent immobile (s; 80% pixel consistency for at least 5 s threshold) were measured and analyzed via Prism 6 software, using a two-way repeated-measures ANOVA with Bonferroni posthoc corrected comparisons. Significance was set at a=0.05 and data is represented as mean±SEM.
The mice were monitored for swelling, redness or formation of granulomas at the injection site. The mice were bled on days 21 and 42. The anti-METH IgG antibody titers were determined by ELISA. On day 45, mice were given a 2 mg/kg dose of METH and their locomotor activity was monitored.

Swiss Webster mice [3] = type: in vivo; conditions: Example 4; hapten conjugated to TT, 75 μg with 50 μg CpG + 750 μg Alhydrogel/alum, s.c. days 0, 14, 28

In the case of TT: tetanus toxoid scaffold protein, the immune response (Swiss Webster mice [1]) was “potent immune responses”.

In the case of `CN[C@@H](CCC(=O)NCCCCCCC(=O)O)Cc1ccccc1` [I-66], the METH-induced locomotor activity (Swiss Webster mice [2]) was “worked as well as, and possibly better than, MH-6” and the “anti-METH antibody titers (ELISA)” value (Swiss Webster mice [3]) was “at least comparable to, and possibly greater than, the MH-6 hapten”.
